Source: ChEMBL document CHEMBL5260828, “Amphiphilic glycoconjugates as potential anti-cancer chemotherapeutics” (Eur J Med Chem, 2018)
Values after ≈ are worked out from the molar mass of the structure shown. One block for each compound: values may come before it.

Assays:
A549 [1] = experiment: Cytotoxicity against human A549 cells assessed as cell growth inhibition incubated for 48 hrs by MTT assay; format: functional, cell-based; conditions: A549, 48 h
K562 [2] = experiment: Antiproliferative activity against human K562 cells assessed as reduction in cell viability incubated for 48 hrs by CCK-8 assay; format: functional, cell-based; conditions: K562, 48 h
IGROV-1 [3] = experiment: Antiproliferative activity against human IGROV-1 cells assessed as inhibition of cell growth incubated for 72 hrs by Coulter counter assay; format: functional, cell-based; conditions: IGROV-1, 72 h
IGROV-1 [4] = experiment: Antiproliferative activity against human IGROV-1 cells assessed as inhibition of cell growth incubated for 72 hrs in serum-free medium by Coulter counter assay; format: functional, cell-based; conditions: IGROV-1, 72 h
[5] = molecular target: RAC-alpha serine/threonine-protein kinase (Homo sapiens, UniProt P31749); experiment: Inhibition of AKT1 (unknown origin) in presence of ATP by ELISA
RAC-alpha serine/threonine-protein kinase, sequence (P31749 whole entry): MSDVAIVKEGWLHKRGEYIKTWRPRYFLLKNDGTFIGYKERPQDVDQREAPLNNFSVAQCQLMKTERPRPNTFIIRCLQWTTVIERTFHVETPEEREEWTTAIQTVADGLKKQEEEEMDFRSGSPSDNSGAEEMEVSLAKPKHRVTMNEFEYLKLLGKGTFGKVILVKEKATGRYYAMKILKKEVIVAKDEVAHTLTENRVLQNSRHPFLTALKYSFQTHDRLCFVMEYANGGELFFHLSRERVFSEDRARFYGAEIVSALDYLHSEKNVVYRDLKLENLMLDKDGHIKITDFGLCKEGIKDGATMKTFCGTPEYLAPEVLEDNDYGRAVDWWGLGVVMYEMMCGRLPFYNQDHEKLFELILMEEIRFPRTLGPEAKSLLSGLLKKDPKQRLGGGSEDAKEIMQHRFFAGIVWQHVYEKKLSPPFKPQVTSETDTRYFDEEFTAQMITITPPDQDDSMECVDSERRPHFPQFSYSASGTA

NCI-H292 = experiment: Cytotoxicity against human NCI-H292 cells assessed as reduction in cell viability incubated for 4 days by WST-1 assay; format: functional, cell-based; conditions: NCI-H292, 96 h
Jurkat = experiment: Inhibition of cell growth in human Jurkat cells at 25 ug/ml; format: functional
[6] = molecular target: Sarcoplasmic/endoplasmic reticulum calcium ATPase 1 (Oryctolagus cuniculus, UniProt P04191); experiment: Inhibition of SERCA1a in rabbit Sarcoplasmic reticulum assessed as inhibition constant in presence of [gamma-32P]ATP and calcium ionophore A23187 by coupled enzyme assay; format: subcellular
Sarcoplasmic/endoplasmic reticulum calcium ATPase 1, sequence (P04191 whole entry): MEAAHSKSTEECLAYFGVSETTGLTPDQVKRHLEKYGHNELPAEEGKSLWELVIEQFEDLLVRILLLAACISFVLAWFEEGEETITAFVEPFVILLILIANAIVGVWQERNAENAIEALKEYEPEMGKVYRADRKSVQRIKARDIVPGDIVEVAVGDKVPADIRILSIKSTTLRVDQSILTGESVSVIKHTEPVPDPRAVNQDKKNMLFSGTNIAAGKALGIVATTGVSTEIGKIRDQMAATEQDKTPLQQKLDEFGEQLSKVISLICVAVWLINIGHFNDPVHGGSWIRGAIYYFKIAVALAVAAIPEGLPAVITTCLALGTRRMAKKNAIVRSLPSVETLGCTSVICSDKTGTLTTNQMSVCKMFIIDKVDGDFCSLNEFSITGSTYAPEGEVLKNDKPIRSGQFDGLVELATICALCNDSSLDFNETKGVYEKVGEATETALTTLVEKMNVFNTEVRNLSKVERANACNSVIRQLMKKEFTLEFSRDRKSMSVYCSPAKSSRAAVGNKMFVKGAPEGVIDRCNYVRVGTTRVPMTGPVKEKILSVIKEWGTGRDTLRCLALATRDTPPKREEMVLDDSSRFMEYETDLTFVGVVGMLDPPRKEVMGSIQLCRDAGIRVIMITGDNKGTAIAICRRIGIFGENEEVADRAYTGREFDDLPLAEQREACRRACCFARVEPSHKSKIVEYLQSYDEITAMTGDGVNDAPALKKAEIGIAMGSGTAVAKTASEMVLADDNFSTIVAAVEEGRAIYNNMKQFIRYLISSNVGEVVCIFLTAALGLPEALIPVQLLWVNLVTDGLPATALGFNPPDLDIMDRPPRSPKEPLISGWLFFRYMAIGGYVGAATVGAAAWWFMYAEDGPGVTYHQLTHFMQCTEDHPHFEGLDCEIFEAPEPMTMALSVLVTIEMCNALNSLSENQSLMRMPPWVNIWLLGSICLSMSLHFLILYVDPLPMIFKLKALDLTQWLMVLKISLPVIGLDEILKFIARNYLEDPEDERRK

HeLa S3 [7] = experiment: Cytotoxicity against human HeLa S3 cells assessed as inhibition of cell proliferation incubated for 72 hrs by MTT assay; format: functional, cell-based; conditions: HeLa S3, 72 h
HeLa = experiment: Cytotoxicity against human HeLa cells assessed as inhibition of cell growth incubated for 24 hrs by MTT assay; format: functional, cell-based
Ca-Ski = experiment: Cytotoxicity against human Ca-Ski cells assessed as inhibition of cell growth incubated for 24 hrs by MTT assay; format: functional, cell-based
Col2 = experiment: Cytotoxicity against human Col2 cells assessed as cell growth inhibition incubated for 24 hrs by MTT assay; format: functional, cell-based; conditions: Col2, 24 h
A549 [8] = experiment: Cytotoxicity against human A549 cells assessed as cell growth inhibition incubated for 24 hrs by MTT assay; format: functional, cell-based; conditions: A549, 24 h
K562 [9] = experiment: Cytotoxicity against human K562 cells assessed as cell growth inhibition incubated for 24 hrs by MTT assay; format: functional, cell-based; conditions: K562, 24 h
KB = experiment: Cytotoxicity against human KB cells assessed as cell growth inhibition incubated for 24 hrs by MTT assay; format: functional, cell-based
MDA-MB-231 [10] = experiment: Cytotoxicity against human MDA-MB-231 cells assessed as cell growth inhibition incubated for 24 hrs by MTT assay; format: functional, cell-based; conditions: MDA-MB-231, 24 h
HeLa S3 [11] = experiment: Cytotoxicity against human HeLa S3 cells assessed as cell growth inhibition incubated for 48 hrs by MTT assay; format: functional, cell-based; conditions: HeLa S3, 48 h
HEp-2 = experiment: Cytotoxicity against human HEp-2 cells assessed as cell growth inhibition by measuring effective dose; format: functional; conditions: read-out: ED50 (the source's name)
MCF7 = experiment: Inhibition of cell growth in human MCF7 cells at 6 ug/ml incubated for 96 hrs; format: functional
MDA-MB-231 [12] = experiment: Inhibition of cell growth in human MDA-MB-231 cells at 6 ug/ml incubated for 96 hrs; format: functional

SMILES: CCCCCCCCCCCCCCCC(=O)OCC(CO[C@H]1O[C@H](CS(=O)(=O)[O-])[C@@H](O)[C@H](O)[C@H]1O)OC(=O)CCCCCCCCCCCCCCC.[Na+] (some centres not stated)
IC50 (A549 [1]): 83.5 µg/mL

IC50 (K562 [2]): 17.7 µM
SMILES: CCCCCCCCCCN1C[C@@H](O)[C@@H](O)C1

SMILES: CCCCCCCCCCCCCCCCCC(=O)OCC(CO[C@H]1O[C@H](CS(=O)(=O)[O-])[C@@H](O)[C@H](O)[C@H]1O)OC(=O)CCCCCCCCCCCCCCCCC.[Na+] (some centres not stated)
IC50 (A549 [1]): 75.5 µg/mL

IC50 [5]: 19.7 µM
SMILES: CCCCCCCCCCCCCCCCCOC(=O)O[C@H](COC(=O)CCCCCCCCCCCCCCCCC)COP(=O)(O)O[C@@H]1[C@H](O)[C@H](OP(=O)(O)O)[C@@H](O)[C@H](O)[C@H]1O
IC50 (IGROV-1 [3]): 49 µM
IC50 (IGROV-1 [4]): 3.35 µM

SMILES: COC[C@@H](C[C@H]1O[C@@](O)([C@H](O)[C@@H]2C[C@H](OC)[C@@H](O)CC/C=C(C)/C=C/[C@@H](O[C@@H]3O[C@@H](C)[C@H](OC)[C@@H](O)[C@@H]3O)[C@H](C)/C=C(C)/C=C(C)/C=C(/C)C(=O)O2)[C@H](C)[C@@H](O)[C@H]1C)O[C@H]1C[C@](C)(O)[C@@H](O[C@H]2C[C@@H](OC)[C@H](O)[C@@H](C)O2)[C@H](C)O1
EC50 (NCI-H292): 0.15 µM

SMILES: CCCCOC(=O)CCCCCCC/C=C/CCCCCC[C@H](C)O[C@@H]1O[C@H](COC(C)=O)[C@@H](O)[C@H](O)[C@H]1O[C@@H]1O[C@H](COC(C)=O)[C@@H](O)[C@H](O)[C@H]1O
inhibition at 25 µg/mL (Jurkat): 99.7%

SMILES: C/C=C/C/C(C)=C\[C@H]1C[C@H]2C=C[C@H](C[C@H](C)/C=C(\C)[C@@H](OC)C/C=C/[C@@H](O[C@@H]3O[C@H](CO)[C@@H](O)[C@H](OC)[C@H]3O)CC(=O)O1)OO2
Ki [6]: 0.018 µM
IC50 (HeLa S3 [7]): > 10 µM

SMILES: CC(=O)OC[C@H]1O[C@H]2O[C@@H](C)CCCCCC/C=C/CCCCCC(=O)O[C@@H]3[C@@H](O)[C@H](O[C@@H]2[C@@H](O)[C@@H]1O)O[C@H](COC(C)=O)[C@H]3O
IC50 (HeLa): 62.9 µg/mL (≈ 95.3 µM)
IC50 (Ca-Ski): 82.2 µg/mL (≈ 124 µM)

SMILES: CCCCCCCCO[C@@H]1O[C@@H](C)[C@H](OC(=O)CCCCC)[C@@H](O[C@@H]2O[C@@H](C)[C@H](OC(C)=O)[C@@H](O[C@@H]3O[C@@H](C)[C@H](OC(C)=O)[C@@H](O[C@@H]4O[C@@H](C)[C@H](O)[C@@H](O)[C@H]4O)[C@H]3OC(C)=O)[C@H]2OC(C)=O)[C@H]1O
IC50 (Col2): 0.7 µM
IC50 (A549 [8]): 0.7 µM
IC50 (K562 [9]): 0.7 µM
IC50 (KB): 0.7 µM
IC50 (MDA-MB-231 [10]): 0.7 µM

SMILES: C/C=C\C/C=C\C/C=C\C/C=C\C/C=C\CCCC(=O)OCC(CO[C@H]1O[C@H](CS(=O)(=O)O)[C@@H](O)[C@H](O)[C@H]1O)OC(=O)CCCCCCCCCCCCCCC (some centres not stated)
IC50 (HeLa S3 [11]): 80 µM

SMILES: CCCCCCCCCCCC(=O)O[C@@H]1[C@@H](O)[C@@H](OC(=O)/C=C/c2ccccc2)[C@H](O[C@@H]2[C@@H](O)[C@@H](OC(=O)[C@@H](C)CC)[C@H](O[C@@H]3[C@@H](O)[C@H]4OC(=O)CCCCCCCCC[C@@H](CCCCC)O[C@@H]5O[C@H](CO)[C@@H](O)[C@H](O)[C@H]5O[C@@H]4O[C@H]3C)O[C@H]2C)O[C@H]1C
EC50 (HEp-2): 3.5 µg/mL (≈ 2.8 µM)

SMILES: CC/C=C\C/C=C\C/C=C\CCCCCCCC(=O)OC[C@@H](CO[C@@H]1O[C@H](CO)[C@H](O)[C@H](O)[C@H]1O)OC(=O)CCCCCCC/C=C\C/C=C\C/C=C\CC
inhibition at 6 µg/mL (MCF7): 90%
inhibition at 6 µg/mL (MDA-MB-231 [12]): 90%

SMILES: CCOC(=O)CCCCCCC/C=C/CCCCCC[C@H](C)O[C@@H]1O[C@H](COC(C)=O)[C@@H](O)[C@H](O)[C@H]1O[C@@H]1O[C@H](COC(C)=O)[C@@H](O)[C@H](O)[C@H]1O
inhibition at 25 µg/mL (Jurkat): 90%
